In EP1994944A1, “Polymer conjugate compounds for the inhibition of apoptosis” (Laboratorios SALVAT, S.A., priority 2007, dated 2008):
Marks after values point to notes of the source that are not given here.

Key:
Caspase activity = test: Caspase inhibition assay (time-dependent, Ac-DEVD-afc substrate) in cultured cells; type: cell-based; conditions: Saos-2, 50 µM drug-eq., apoptosis induced by doxycyclin 2 µM, vs non-treated cells
Protocol: The time-dependent inhibition of caspase induced by the compounds described in this invention was analyzed. Cell lines were grown in the presence or absence of compounds (50 µM) at different times. Caspase activity was assayed using Saos-2 or U937 cultured cell lines and Ac-DEVD-afc (N-acetyl-Asp-Glu-Val-Asp-afc(7-amino-4-trifluoromethyl coumarin)) as substrate (20 µM). For Saos-2 cell line, apoptosis induction was carried out by the addition of doxycyclin 2 µM; in the case of U937, apoptosis was induced by doxorubicin 0.25 µM. Caspase activity was continuously monitored by the liberation of fluorescent afc using a Cytofluor 4000 fluorimeter (excitation 400 nm; emission 508 nm) for 2 hour. The effect of the compounds on the caspase activity was expressed as the percentage of inhibition in the fluorescence signal of treated cells vs the non-treated cells (control). As control is shown the activity of the previously described conjugate with diglycil linker (named as diglycil)

Cathepsin B [1] = molecular target: T1, Cathepsin B (Homo sapiens, UniProt P07858); conditions: reference value from Vicent MJ and Pérez-Payá, J. Med. Chem. 2006, 49, 3763-3765, cited from earlier work
Cathepsin B [2] = molecular target: T1, Cathepsin B; test: Degradation on incubation with Cathepsin B: Mw loss and drug release profile from PGA-conjugate; type: in vitro ADME; conditions: Cathepsin B (5 U), pH 6 buffer, 37°C; for 50% drug release t: determined by HPLC; for 50% Mw Loss t: determined by Size Exclusion Chromatography (SEC)
Protocol: Aqueous solutions of I.1 (1 mg/mL) were prepared, and an aliquot (100 µL) was added to a polypropylene tube and made up to 1 mL with water. The pH of the samples was adjusted to 8 with ammonium formate buffer (100 µL, 1 M, pH 8.5), and then CHCl3 (5 mL) was added. Samples were then thoroughly extracted by vortexing (3 x 10 sec). The […] layer was carefully removed and the solvent was evaporated under N2. The dry residue was dissolved in 200 µL of HPLC grade acetonitrile. In parallel the same procedure was carried out for the parent compound II.1 (using 200µL of a 1 mg/mL stock aqueous solution). Addition of 1 mL of acetonitrile to redissolve the product gave a 200 µg/mL stock from which a range of concentrations was prepared (2 to 100 µg/mL). The free amount of drug in the conjugates was determined by HPLC using a Lichrospher® C18 (150 x 3.9 mm) column. Flow rate 1 mL/min using an acetonitrile gradient in aqueous 0.1 % TFA (from 10 to 90% of acetonitrile in 25 min). The retention time was tr = 22.5 min for II.1 (λ = 220 nm) and tr = 22.0 for II.2.
Cathepsin B (5 U) was added last to a solution of 3 mg PGA or PGA-conjugate I in 1 mL of a pH 6 buffer composed by 20 mM sodium acetate, 2 mM EDTA and 5 mM DTT. Incubation was carried out at 37°C. Aliquots (150 µL) were taken at times up to 72 h, immediately frozen in liquid nitrogen, and stored frozen in the dark until assayed by HPLC (analysis of 100 µL aliquots after extraction procedure) and/or GPC (direct analysis of 50 µL aliquots). In control experiments polymers were incubated in buffer alone (without addition of cathepsin B) to assess non-enzymatic hydrolytic cleavage. In addition, free drug (0.75 mg/mL) was also incubated under same conditions and later used as the reference control. HPLC Evaluation of Released Drug (VIIIa, I.1 or I.2) The extraction method described above to determine free drug content of the conjugate samples was also used here. Mass analysis of the released compounds was carried out by MALDI TOF TOF. GPC Evaluation of Polymer Mw loss. The 50 µL aliquots were diluted up to 200 µL with buffer (PBS) and the Mw determined by GPC using PEG standards. Generally degradation profiles for biomedical polymers are obtained under constant sink conditions and the results correlated with mass loss of the polymer. Since PGA polymers are water soluble, the relative peak areas used in the GPC derived molecular weight calculations provided a suitable alternative to indicate the relative amount of the polymer that remained at each timepoint. As the polymer degraded there was a notable loss of I (PGA-conjugate) molecular weight. Therefore, the loss with time of the area under the curve (AUC) for I and PGA (XII) was considered to evaluate the rate of backbone degradation. […]

In the case of “Poly-L-glutamic acid [2-Amino-pentanoic acid (1-{{[({carbamoyl[2-(2,4-chlorophenyl)ethyl]carbamoyl}methyl)-(3,3-diphenylpropyl)carbamoyl]methyl}-[2-(2,4-dichlorophenyl)ethyl]carbamoyl}-2-methylpropyl)amide] conjugate [diglycil, reference compound]”, the “% Caspase Inhibition” value (Caspase activity; Time 24 h) is reported as 67%, the “% Caspase Inhibition” value (Caspase activity; Time 48 h) is reported as 72% and the “% Caspase Inhibition” value (Caspase activity; Time 72 h) is reported as 100%. The “50% drug release t (h)” value (Cathepsin B [1]; determined by HPLC) was 30^c h and the “50% Mw Loss t (h)” value (Cathepsin B [1]; determined by SEC) was 60^c h.
For “Poly-L-glutamic acid [2-Amino-4-methylpentanoic acid (1-{{[({carbamoylmethyl-[2-(2,4-dichlorophenyl)ethyl]carbamoyl}methyl)-(3,3-diphenylpropyl)carbamoyl]methyl}-[2-(2,4-dichlorophenyl)ethyl]carbamoyl}-2-methylpropyl)amide] conjugate [I.2]”, the “% Caspase Inhibition” value (Caspase activity; Time 24 h) was 65%, the “% Caspase Inhibition” value (Caspase activity; Time 48 h) was 100% and the “% Caspase Inhibition” value (Caspase activity; Time 72 h) was 100%. For the same substance, the “50% drug release t” value (Cathepsin B [2]) was 20 h and the “50% Mw Loss t” value (Cathepsin B [2]) was 30 h.
With “Poly-L-glutamic acid [2-(2-Amino-3-phenylpropionylamino)-N-{[({carbamoylmethyl-[2-(2,4-dichlorophenyl)ethyl]carbamoyl}methyl)-(3,3-diphenylpropyl)carbamoyl]-methyl}-N-[2-(2,4-dichlorophenyl)ethyl]-3-methylbutyramide] conjugate [I.1]” the “% Caspase Inhibition” value (Caspase activity; Time 24 h) was 23%, the “% Caspase Inhibition” value (Caspase activity; Time 48 h) was 65% and the “% Caspase Inhibition” value (Caspase activity; Time 72 h) was 100%. The “50% drug release t” value (Cathepsin B [2]) was 0.7 h and the “50% Mw Loss t” value (Cathepsin B [2]) was 5 h.
